{"source": "ChEMBL document CHEMBL1156687", "about": "“Design and microwave-assisted synthesis of 5-trifluoromethyl-4,5-dihydro-1H-pyrazoles: novel agents with analgesic and anti-inflammatory properties” (Eur J Med Chem, 2008)", "key": {"Mus musculus [1]": {"tested_on": "Mus musculus", "assay": "Analgesic activity against formalin-induced inflammatory pain in albino mouse assessed as time spent on paw licking at 750 umol/kg, sc administered 20 mins before formalin challenge assessed for 30 mins at 5 mins intervals", "assay_type": "functional"}, "Mus musculus [2]": {"tested_on": "Mus musculus", "assay": "Analgesic activity against formalin-induced neurogenic pain in albino mouse assessed as time spent on paw licking at 750 umol/kg, sc administered 20 mins before formalin challenge assessed for 30 mins at 5 mins intervals", "assay_type": "functional"}, "Mus musculus [3]": {"tested_on": "Mus musculus", "assay": "Analgesic activity against formalin-induced inflammatory pain in albino mouse assessed as time spent on paw licking at 25 umol/kg, sc administered 20 mins before formalin challenge assessed for 30 mins at 5 mins intervals", "assay_type": "functional, organism-based"}, "Mus musculus [4]": {"organism": "Mus musculus", "assay": "Toxicity against in albino mouse after 72 hrs", "assay_type": "organism-based", "conditions": "in vivo"}, "Mus musculus [5]": {"tested_on": "Mus musculus", "assay": "Analgesic activity against formalin-induced neurogenic pain in albino mouse assessed as time spent on paw licking at 1000 umol/kg, sc administered 20 mins before formalin challenge assessed for 30 mins at 5 mins intervals", "assay_type": "functional"}, "Mus musculus [6]": {"tested_on": "Mus musculus", "assay": "Analgesic activity against formalin-induced inflammatory pain in albino mouse assessed as time spent on paw licking at 1000 umol/kg, sc administered 20 mins before formalin challenge assessed for 30 mins at 5 mins intervals", "assay_type": "functional"}, "Mus musculus [7]": {"tested_on": "Mus musculus", "assay": "Analgesic activity against formalin-induced neurogenic pain in albino mouse assessed as time spent on paw licking at 1500 umol/kg, sc administered 20 mins before formalin challenge assessed for 30 mins at 5 mins intervals", "assay_type": "functional, organism-based"}, "Mus musculus [8]": {"tested_on": "Mus musculus", "assay": "Analgesic activity against formalin-induced inflammatory pain in albino mouse assessed as time spent on paw licking at 1500 umol/kg, sc administered 20 mins before formalin challenge assessed for 30 mins at 5 mins intervals", "assay_type": "functional, organism-based"}, "Mus musculus [9]": {"tested_on": "Mus musculus", "assay": "Analgesic activity in albino mouse assessed as response latency at 1000 ug/ml, sc after 30 mins by hot plate method", "assay_type": "functional, organism-based"}, "Mus musculus [10]": {"tested_on": "Mus musculus", "assay": "Analgesic activity in albino mouse assessed as inhibition of carrageenan-induced paw edema at 1000 ug/ml", "assay_type": "functional", "parameters": "scale not given: the % may be the effect or the level left"}, "Mus musculus [11]": {"tested_on": "Mus musculus", "assay": "Analgesic activity in albino mouse assessed as falling latency at 1000 ug/ml, sc after 30 mins by rotarod test", "assay_type": "functional"}, "Mus musculus [12]": {"tested_on": "Mus musculus", "assay": "Analgesic activity in albino mouse assessed as number of falls from the rod at 1000 ug/ml, sc after 4 mins by rotarod test", "assay_type": "functional"}, "Mus musculus [13]": {"tested_on": "Mus musculus", "assay": "Increase in locomotor activity in albino mouse assessed as number of crossing at 1000 umol/kg", "assay_type": "functional"}, "Mus musculus [14]": {"tested_on": "Mus musculus", "assay": "Increase in locomotor activity in albino mouse assessed as number of crossing at 1500 umol/kg", "assay_type": "functional"}, "Mus musculus [15]": {"tested_on": "Mus musculus", "assay": "Analgesic activity in albino mouse assessed as response latency at 1500 ug/ml, sc after 30 mins by hot plate method", "assay_type": "functional, organism-based"}, "Mus musculus [16]": {"tested_on": "Mus musculus", "assay": "Analgesic activity against formalin-induced inflammatory pain in albino mouse assessed as time spent on paw licking at 75 umol/kg, sc administered 20 mins before formalin challenge assessed for 30 mins at 5 mins intervals", "assay_type": "functional, organism-based"}, "Mus musculus [17]": {"tested_on": "Mus musculus", "assay": "Analgesic activity against formalin-induced inflammatory pain in albino mouse assessed as time spent on paw licking at 250 umol/kg, sc administered 20 mins before formalin challenge assessed for 30 mins at 5 mins intervals", "assay_type": "functional, organism-based"}}, "note": "Activity calls are given as the source filed them. No cut-off for these calls is given here.", "data": [{"smiles": "CC(C)C1=NN(C(N)=O)C(O)(C(F)(F)F)C1", "note": "(centres undefined)", "values": [{"measurement": "Activity", "setting": "Mus musculus [1]", "result": 67, "unit": "%"}, {"measurement": "Activity", "setting": "Mus musculus [2]", "result": 51.9, "unit": "%"}, {"measurement": "Activity", "setting": "Mus musculus [3]", "result": "Active"}, {"measurement": "Activity", "setting": "Mus musculus [4]", "result": "Non-toxic"}]}, {"smiles": "CCC1=NN(C(N)=O)C(O)(C(F)(F)F)C1", "note": "(centres undefined)", "values": [{"measurement": "Activity", "setting": "Mus musculus [5]", "result": 87.9, "unit": "%"}, {"measurement": "Activity", "setting": "Mus musculus [6]", "result": 98.2, "unit": "%"}, {"measurement": "Activity", "setting": "Mus musculus [7]", "result": "Active"}, {"measurement": "Activity", "setting": "Mus musculus [8]", "result": "Active"}, {"measurement": "Activity", "setting": "Mus musculus [9]", "result": "inactive"}, {"measurement": "Activity", "setting": "Mus musculus [10]", "result": 43.7, "unit": "%"}, {"measurement": "Activity", "setting": "Mus musculus [11]", "result": 112.5, "unit": "s"}, {"measurement": "Activity", "setting": "Mus musculus [12]", "result": 3.7}, {"measurement": "Activity", "setting": "Mus musculus [13]", "result": 165.6}]}, {"smiles": "NC(=O)N1N=CCC1(O)C(F)(F)F", "note": "(centres undefined)", "values": [{"measurement": "Activity", "setting": "Mus musculus [5]", "result": 32.8, "unit": "%"}, {"measurement": "Activity", "setting": "Mus musculus [6]", "result": 70.8, "unit": "%"}]}, {"smiles": "CCCCC1=NN(C(N)=O)C(O)(C(F)(F)F)C1", "note": "(centres undefined)", "values": [{"measurement": "Activity", "setting": "Mus musculus [1]", "result": -22.3, "unit": "%"}, {"measurement": "Activity", "setting": "Mus musculus [2]", "result": 46, "unit": "%"}]}, {"smiles": "NC(=O)c1ccccc1O", "note": "[SALICYLAMIDE]", "values": [{"measurement": "Activity", "setting": "Mus musculus [7]", "result": "inactive"}, {"measurement": "Activity", "setting": "Mus musculus [14]", "result": 102.1}]}, {"smiles": "NC(=O)N1N=C(c2ccccc2)CC1(O)C(F)(F)F", "note": "(centres undefined)", "values": [{"measurement": "Activity", "setting": "Mus musculus [5]", "result": 10, "unit": "%"}, {"measurement": "Activity", "setting": "Mus musculus [6]", "result": 8.2, "unit": "%"}]}, {"smiles": "CC1C=NN(C(N)=O)C1(O)C(F)(F)F", "note": "(centres undefined)", "values": [{"measurement": "Activity", "setting": "Mus musculus [5]", "result": 74.6, "unit": "%"}, {"measurement": "Activity", "setting": "Mus musculus [6]", "result": 97.2, "unit": "%"}, {"measurement": "Activity", "setting": "Mus musculus [7]", "result": "Active"}, {"measurement": "Activity", "setting": "Mus musculus [8]", "result": "Active"}, {"measurement": "Activity", "setting": "Mus musculus [9]", "result": "inactive"}, {"measurement": "Activity", "setting": "Mus musculus [10]", "result": 34.6, "unit": "%"}, {"measurement": "Activity", "setting": "Mus musculus [11]", "result": 62.6, "unit": "s"}, {"measurement": "Activity", "setting": "Mus musculus [12]", "result": 5.1}, {"measurement": "Activity", "setting": "Mus musculus [13]", "result": 167.3}, {"measurement": "Activity", "setting": "Mus musculus [4]", "result": "Non-toxic"}]}, {"smiles": "CC1=NN(C(N)=O)C(O)(C(F)(F)F)C1", "note": "(centres undefined)", "values": [{"measurement": "Activity", "setting": "Mus musculus [5]", "result": 23.3, "unit": "%"}, {"measurement": "Activity", "setting": "Mus musculus [6]", "result": 55.5, "unit": "%"}]}, {"smiles": "Cc1c(N(C)CS(=O)(=O)[O-])c(=O)n(-c2ccccc2)n1C.[Na+]", "note": "[DIPYRONE SODIUM]", "values": [{"measurement": "Activity", "setting": "Mus musculus [7]", "result": "Active"}, {"measurement": "Activity", "setting": "Mus musculus [15]", "result": "Active"}, {"measurement": "Activity", "setting": "Mus musculus [13]", "result": 87.7}]}, {"smiles": "CC(C)(C)C1=NN(C(N)=O)C(O)(C(F)(F)F)C1", "note": "(centres undefined)", "values": [{"measurement": "Activity", "setting": "Mus musculus [5]", "result": 59.1, "unit": "%"}, {"measurement": "Activity", "setting": "Mus musculus [6]", "result": 72.9, "unit": "%"}]}, {"smiles": "NC(=O)N1N=C(c2ccc(Br)cc2)CC1(O)C(F)(F)F", "note": "(centres undefined)", "values": [{"measurement": "Activity", "setting": "Mus musculus [5]", "result": 33.3, "unit": "%"}, {"measurement": "Activity", "setting": "Mus musculus [6]", "result": 47.3, "unit": "%"}]}, {"smiles": "CCCC1=NN(C(N)=O)C(O)(C(F)(F)F)C1", "note": "(centres undefined)", "values": [{"measurement": "Activity", "setting": "Mus musculus [16]", "result": "Active"}, {"measurement": "Activity", "setting": "Mus musculus [17]", "result": "inactive"}, {"measurement": "Activity", "setting": "Mus musculus [1]", "result": 70.1, "unit": "%"}, {"measurement": "Activity", "setting": "Mus musculus [2]", "result": 48.2, "unit": "%"}]}]}
